Data as given in US10517889B2, “Modulators of SMAD7 expression” (Ionis Pharmaceuticals, Inc., priority 2017, dated 2019).
Strand notation (5' to 3'): a small letter for the sugar, then the base; units joined by * are phosphorothioate-linked, units joined directly phosphodiester-linked; [ ] holds rarer units or linkages, { } end groups; capitals alone tell only the bases. k = constrained ethyl (cEt); [5mC] = 5-methylcytosine; d = 2'-deoxy (DNA)

System: human SMAD7 mRNA
Test: Antisense inhibition of human SMAD7 mRNA expression in Hep3B cells by 3-10-3 cEt gapmers, 10,000 nM, electroporation (Example 2)
Type: cell-based
Conditions: Hep3B cells, approximately 24 hours; for % Inhibition: electroporation with 10,000 nM antisense oligonucleotide, RTS5062, percent inhibition of SMAD7 mRNA relative to untreated control cells; for % inhibition of SMAD7 mRNA expression: electroporation, 10,000 nM antisense oligonucleotide, RTS5062, relative to untreated control cells
How it was run: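 Hep3B, 20,000 cells/well; electroporation, 10,000 nM ASO; ~24 h. Readout: SMAD7 mRNA by qRT-PCR (RTS5062), RIBOGREEN-normalised; % inhibition vs untreated.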

Substance | % Inhibition | % inhibition of SMAD7 mRNA expression
799532 (kG*k[5mC]*kA*dG*dA*dA*dG*dG*d[5mC]*d[5mC]*dA*d[5mC]*d[5mC]*k[5mC]*k[5mC]*k[5mC]; antisense) [compound 799532] | 21% | 
799533 (kG*kA*kA*dT*dG*dA*dA*dG*dT*d[5mC]*d[5mC]*dA*dG*kA*k[5mC]*k[5mC]; antisense) [compound 799533] | 50% | 
799535 (kA*kA*k[5mC]*dT*dT*dA*dA*dG*dG*d[5mC]*dA*dT*dA*kT*kA*kA; antisense) [compound 799535] |  | 42%
799536 (kA*k[5mC]*k[5mC]*dG*dA*dT*dG*d[5mC]*dA*dT*d[5mC]*d[5mC]*dA*kA*k[5mC]*kT; antisense) [compound 799536] |  | 50%
799537 (kG*kG*kG*d[5mC]*dA*d[5mC]*d[5mC]*dA*d[5mC]*dA*dA*dT*dG*kT*k[5mC]*kA; antisense) [compound 799537] |  | 3%
799538 (kT*kG*k[5mC]*dA*dG*dG*dA*dT*dG*dA*dG*dG*dA*kG*k[5mC]*kT; antisense) [compound 799538] |  | 29%
799539 (k[5mC]*k[5mC]*k[5mC]*dG*dT*d[5mC]*d[5mC]*dA*d[5mC]*dG*dG*dA*dA*k[5mC]*kG*kG; antisense) [compound 799539] |  | 41%
799541 (kT*kT*kA*dA*dT*dG*dA*d[5mC]*dA*d[5mC]*d[5mC]*dA*dA*kA*kG*kT; antisense) [compound 799541] |  | 55%
799542 (kG*kT*kT*dA*dA*dT*dG*dA*d[5mC]*dA*d[5mC]*d[5mC]*dA*kA*kA*kG; antisense) [compound 799542] |  | 30%
799545 (kT*k[5mC]*k[5mC]*d[5mC]*dA*d[5mC]*d[5mC]*d[5mC]*dT*dG*dG*dT*dG*k[5mC]*kT*k[5mC]; antisense) [compound 799545] | 9% | 
799546 (kT*kA*k[5mC]*dT*dG*dT*dT*dG*dG*d[5mC]*dA*dG*dT*kG*k[5mC]*kT; antisense) [compound 799546] | 48% | 
799547 (kT*k[5mC]*k[5mC]*dT*dA*d[5mC]*dT*dG*dT*dT*dG*dG*d[5mC]*kA*kG*kT; antisense) [compound 799547] | 50% | 
799548 (k[5mC]*kT*k[5mC]*d[5mC]*dT*dA*d[5mC]*dT*dG*dT*dT*dG*dG*k[5mC]*kA*kG; antisense) [compound 799548] | 39% | 
799549 (kG*k[5mC]*kT*d[5mC]*d[5mC]*dT*dA*d[5mC]*dT*dG*dT*dT*dG*kG*k[5mC]*kA; antisense) [compound 799549] | 53% | 
799550 (kA*kG*k[5mC]*dT*d[5mC]*d[5mC]*dT*dA*d[5mC]*dT*dG*dT*dT*kG*kG*k[5mC]; antisense) [compound 799550] | 50% | 
799551 (kT*kT*kA*d[5mC]*dA*dG*d[5mC]*dT*d[5mC]*d[5mC]*dT*dA*d[5mC]*kT*kG*kT; antisense) [compound 799551] | 12% | 
799552 (kA*kG*kG*dG*dA*dA*d[5mC]*dA*dA*dT*dT*dA*d[5mC]*kA*kG*k[5mC]; antisense) [compound 799552] | 58% | 
799553 (k[5mC]*k[5mC]*k[5mC]*d[5mC]*dG*d[5mC]*dT*dA*dG*dG*dG*dA*dA*k[5mC]*kA*kA; antisense) [compound 799553] | 46% | 
799554 (kT*kA*k[5mC]*d[5mC]*dT*dG*dT*dG*dA*dG*d[5mC]*d[5mC]*d[5mC]*kT*kG*kA; antisense) [compound 799554] |  | 0%
799555 (kT*kA*k[5mC]*d[5mC]*d[5mC]*d[5mC]*dG*dT*dG*d[5mC]*d[5mC]*dT*dG*kT*k[5mC]*kA; antisense) [compound 799555] |  | 51%
799557 (kA*kG*k[5mC]*d[5mC]*dA*dG*dT*dT*d[5mC]*dT*dT*dA*dG*kA*kA*kA; antisense) [compound 799557] |  | 28%
799558 (k[5mC]*kT*kT*d[5mC]*dT*dA*dT*dT*d[5mC]*dG*dA*dG*d[5mC]*kT*kG*k[5mC]; antisense) [compound 799558] |  | 47%
799559 (kA*kG*k[5mC]*dT*dT*d[5mC]*dT*dA*dT*dT*d[5mC]*dG*dA*kG*k[5mC]*kT; antisense) [compound 799559] |  | 37%
799560 (kG*kG*k[5mC]*dA*d[5mC]*dA*dG*d[5mC]*dT*dT*d[5mC]*dT*dA*kT*kT*k[5mC]; antisense) [compound 799560] |  | 18%
799561 (kG*kG*kA*dA*dT*dG*dA*dA*d[5mC]*dT*dT*dT*dG*k[5mC]*k[5mC]*kT; antisense) [compound 799561] |  | 45%
799562 (kG*kA*kA*dG*dA*dG*dG*dA*dG*dA*dG*d[5mC]*d[5mC]*kG*kG*kG; antisense) [compound 799562] |  | 39%

Substance | % Inhibition | % inhibition of SMAD7 mRNA expression
799567 (k[5mC]*kT*kT*dT*dG*dA*dG*dT*dA*dA*dA*d[5mC]*dA*kA*kT*kA; antisense) [compound 799567] | 15% | 
799569 (k[5mC]*kT*k[5mC]*dT*dA*dG*dG*dT*d[5mC]*d[5mC]*d[5mC]*dT*d[5mC]*kT*kT*kT; antisense) [compound 799569] | 24% | 
799570 (kA*kA*kA*dA*dG*dA*dT*dG*d[5mC]*dA*dG*dT*dT*k[5mC]*kA*k[5mC]; antisense) [compound 799570] | 39% | 
799571 (k[5mC]*kA*kG*dA*dA*dA*dA*dG*dA*dT*dG*d[5mC]*dA*kG*kT*kT; antisense) [compound 799571] | 46% | 
799573 (kA*kA*kT*dA*dA*dA*dA*d[5mC]*d[5mC]*dA*dT*d[5mC]*dT*kA*kA*k[5mC]; antisense) [compound 799573] | 0% | 
799574 (k[5mC]*kA*kT*dT*d[5mC]*dA*dG*dG*dG*dT*dT*dT*dA*kA*kA*kA; antisense) [compound 799574] |  | 7%
799575 (k[5mC]*kA*k[5mC]*dA*dT*dT*d[5mC]*dA*dG*dG*dG*dT*dT*kT*kA*kA; antisense) [compound 799575] |  | 38%
799576 (kG*kA*kA*dA*dG*dG*dA*d[5mC]*d[5mC]*d[5mC]*dT*dT*dT*k[5mC]*kA*kA; antisense) [compound 799576] |  | 25%
799578 (kA*k[5mC]*k[5mC]*dT*dT*d[5mC]*d[5mC]*dG*dA*dA*dA*dG*dG*kA*k[5mC]*k[5mC]; antisense) [compound 799578] |  | 76%
799579 (kA*kA*k[5mC]*d[5mC]*dT*dT*d[5mC]*d[5mC]*dG*dA*dA*dA*dG*kG*kA*k[5mC]; antisense) [compound 799579] |  | 51%
799580 (kA*kA*kA*d[5mC]*d[5mC]*dT*dT*d[5mC]*d[5mC]*dG*dA*dA*dA*kG*kG*kA; antisense) [compound 799580] |  | 33%
799581 (k[5mC]*kA*kA*dA*d[5mC]*d[5mC]*dT*dT*d[5mC]*d[5mC]*dG*dA*dA*kA*kG*kG; antisense) [compound 799581] |  | 0%
799582 (kA*k[5mC]*kA*dA*dA*d[5mC]*d[5mC]*dT*dT*d[5mC]*d[5mC]*dG*dA*kA*kA*kG; antisense) [compound 799582] |  | 19%
799584 (kT*kA*kT*d[5mC]*dA*dA*dG*dA*dA*dG*dA*d[5mC]*dA*kA*kA*k[5mC]; antisense) [compound 799584] | 39% | 
799585 (kA*kG*kA*d[5mC]*dA*dA*dG*dA*dT*dG*dT*dT*dA*kT*k[5mC]*kA; antisense) [compound 799585] | 34% | 
799586 (kG*kA*kG*dG*dA*dG*dG*d[5mC]*dA*d[5mC]*dT*d[5mC]*dA*kG*kG*k[5mC]; antisense) [compound 799586] | 50% | 
799587 (kT*kT*k[5mC]*dA*d[5mC]*dA*dG*dG*dT*d[5mC]*dA*d[5mC]*dA*kT*kG*kG; antisense) [compound 799587] | 42% | 
799588 (kA*kA*kA*dA*dA*dG*d[5mC]*d[5mC]*d[5mC]*dA*d[5mC]*d[5mC]*d[5mC]*kA*kT*k[5mC]; antisense) [compound 799588] | 44% | 
799590 (k[5mC]*kT*kG*d[5mC]*dA*dG*dT*d[5mC]*dT*dT*d[5mC]*dT*dG*kA*kA*kG; antisense) [compound 799590] | 9% | 
799591 (kA*kT*kT*dA*dG*dT*dA*dA*dA*dT*d[5mC]*dA*dA*kG*kA*kG; antisense) [compound 799591] | 56% | 
799592 (kG*kG*kA*dA*dT*dT*dA*dG*dT*dA*dA*dA*dT*k[5mC]*kA*kA; antisense) [compound 799592] | 47% | 
799593 (kG*kA*kA*dG*dG*dA*dG*d[5mC]*dT*d[5mC]*dA*dA*dA*k[5mC]*kT*kT; antisense) [compound 799593] |  | 0%
799594 (kT*kG*kA*dA*d[5mC]*dG*dG*dA*dA*dA*dG*dA*dA*kG*kA*kA; antisense) [compound 799594] |  | 35%
799595 (k[5mC]*kT*k[5mC]*dT*dG*dA*dA*d[5mC]*dG*dG*dA*dA*dA*kG*kA*kA; antisense) [compound 799595] |  | 35%
799597 (kA*kA*k[5mC]*dT*d[5mC]*dT*dG*dA*dA*d[5mC]*dG*dG*dA*kA*kA*kG; antisense) [compound 799597] |  | 46%
799598 (k[5mC]*kA*kA*d[5mC]*dT*d[5mC]*dT*dG*dA*dA*d[5mC]*dG*dG*kA*kA*kA; antisense) [compound 799598] |  | 39%
